Measurements from ChEMBL document CHEMBL1201862, “PubChem BioAssay data set” (2004).
The source made the active and inactive calls.

How the values were obtained:
[1] = target: T1, Delta-type opioid receptor (Homo sapiens, UniProt P41143); experiment: HTS Image-Based Screen for Antagonists of the DOR Receptor. [Related pubchem assays (depositor defined):AID1777, AID1785, AID1786, AID2133]; format: functional
Mu-type opioid receptor = Mu-type opioid receptor (Homo sapiens, UniProt P35372); experiment: HTS Image-Based Screen for Agonists of the MOR Receptor. [Related pubchem assays (depositor defined):AID1777, AID1785, AID1786, AID2133]; format: functional;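 note: imaging of beta-arrestin GFP recruitment into spots after receptor activation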
[2] = target: T1, Delta-type opioid receptor; experiment: HTS Image-Based Screen for Agonists of the DOR Receptor. [Related pubchem assays (depositor defined):AID1777, AID1786, AID2133]; format: functional
[3] = target: T2, Kappa-type opioid receptor (Homo sapiens, UniProt P41145); format: functional
Beta-galactosidase = Beta-galactosidase (Escherichia coli, UniProt Q8VNN2); format: functional
[4] = target: T2, Kappa-type opioid receptor; format: functional; remark: listed apart in the source
CHO = experiment: cytotoxicity in TLR9-MyD88 CHO cells, dose response, cytotoxicity control for TLR9-MyD88 binding inhibitor project, cell-based, luminescence (AID 588339); format: functional, hamster; conditions: Cricetulus griseus;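 note: CHO cells stably coexpressing TLR9 and MyD88 fusions from primary screen; compound exposure lasted 48 hours before viability readout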
[5] = target: T3, Replicative DNA helicase DnaB (Mycobacterium tuberculosis, UniProt P9WMR3); experiment: DnaB intein splicing inhibitors, dose response, biochemical, cell-free fluorescence (AID 449749); format: functional
T3 sequence (P9WMR3 whole entry): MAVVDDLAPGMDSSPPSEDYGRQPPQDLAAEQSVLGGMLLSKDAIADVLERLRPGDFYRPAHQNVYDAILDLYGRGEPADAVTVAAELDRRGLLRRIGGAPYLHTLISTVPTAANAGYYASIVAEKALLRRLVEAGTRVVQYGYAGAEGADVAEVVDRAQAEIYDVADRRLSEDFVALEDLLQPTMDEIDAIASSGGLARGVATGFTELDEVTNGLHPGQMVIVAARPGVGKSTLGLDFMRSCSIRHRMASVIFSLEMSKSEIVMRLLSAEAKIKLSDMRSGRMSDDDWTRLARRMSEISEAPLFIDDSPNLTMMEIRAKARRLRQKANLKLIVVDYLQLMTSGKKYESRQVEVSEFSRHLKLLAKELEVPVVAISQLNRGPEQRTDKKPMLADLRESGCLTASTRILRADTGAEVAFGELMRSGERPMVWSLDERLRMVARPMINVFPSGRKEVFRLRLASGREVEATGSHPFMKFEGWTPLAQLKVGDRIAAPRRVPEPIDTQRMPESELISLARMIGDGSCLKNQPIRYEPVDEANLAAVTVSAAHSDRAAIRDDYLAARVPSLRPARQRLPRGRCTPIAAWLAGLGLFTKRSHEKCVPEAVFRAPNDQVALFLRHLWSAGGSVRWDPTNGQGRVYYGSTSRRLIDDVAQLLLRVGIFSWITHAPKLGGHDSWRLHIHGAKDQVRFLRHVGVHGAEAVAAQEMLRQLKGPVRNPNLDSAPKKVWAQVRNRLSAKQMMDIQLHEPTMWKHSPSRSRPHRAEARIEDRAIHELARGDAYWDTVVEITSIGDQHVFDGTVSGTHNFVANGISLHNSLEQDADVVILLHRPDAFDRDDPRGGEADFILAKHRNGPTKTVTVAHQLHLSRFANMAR

[6] = target: Heat shock protein HSP 90-alpha (Homo sapiens, UniProt P07900); format: functional, organism-based
Protein RecA = target: T4, Protein RecA (Mycobacterium tuberculosis, UniProt P9WHJ3); experiment: Fluorescence Cell-Free Homogeneous Dose Retest to Identify Inhibitors of RecA-Intein Splicing Activity. [Related pubchem assays (depositor defined):AID2097, AID2223, AID489010, AID492950]; format: functional
T4 sequence (P9WHJ3 whole entry): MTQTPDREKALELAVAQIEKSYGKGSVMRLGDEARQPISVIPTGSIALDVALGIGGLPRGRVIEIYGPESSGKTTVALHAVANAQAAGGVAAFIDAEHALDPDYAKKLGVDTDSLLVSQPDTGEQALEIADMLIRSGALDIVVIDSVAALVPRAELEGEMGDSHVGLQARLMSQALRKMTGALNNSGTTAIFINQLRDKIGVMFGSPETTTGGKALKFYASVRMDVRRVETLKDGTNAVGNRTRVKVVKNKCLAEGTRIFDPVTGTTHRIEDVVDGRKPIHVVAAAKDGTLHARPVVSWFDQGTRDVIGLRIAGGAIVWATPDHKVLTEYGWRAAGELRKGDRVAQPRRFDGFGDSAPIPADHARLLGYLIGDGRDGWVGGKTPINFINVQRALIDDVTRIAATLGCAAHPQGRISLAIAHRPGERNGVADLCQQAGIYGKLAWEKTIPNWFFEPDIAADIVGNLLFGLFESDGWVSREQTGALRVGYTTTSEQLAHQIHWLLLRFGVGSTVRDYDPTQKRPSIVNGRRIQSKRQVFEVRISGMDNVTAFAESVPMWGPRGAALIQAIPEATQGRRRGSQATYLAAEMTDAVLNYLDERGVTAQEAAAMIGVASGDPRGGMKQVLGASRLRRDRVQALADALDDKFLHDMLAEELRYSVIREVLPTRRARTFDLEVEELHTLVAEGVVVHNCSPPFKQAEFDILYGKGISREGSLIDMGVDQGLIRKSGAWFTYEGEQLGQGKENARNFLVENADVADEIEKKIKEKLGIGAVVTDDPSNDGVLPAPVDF

Beta Lactamase = Beta Lactamase (Pseudomonas aeruginosa, UniProt Q932Y6); experiment: beta-lactamase reporter inhibitor potency, dose response, artefact control for TLR9-MyD88 binding inhibitor project, BLA reporter cells, FRET fluorescence (AID 588341); format: cell-based;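 note: cell based assay in CHO-K1 cells stably expressing beta-lactamase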
[7] = Shn3 3'UTR reporter inhibitors, dose response, cell-based, Clone20 osteoblasts, firefly luciferase, cherry-picked (AID 624132); format: functional;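 note: firefly luciferase luminescence from reporter carrying the Shn3 3'UTR in osteoblasts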
[8] = HepG2 cell cytotoxicity, dose response, cytotoxicity control for Shn3 inhibitor project, CellTiter-Glo, cherry-picked (AID 624134); format: functional, cell-based
[9] = control 3'UTR Renilla luciferase suppression, dose response, counter-screen for Shn3 inhibitor project, cell-based, Clone20-Shn3RL, cherry-picked (AID 624133); format: functional
[10] = target: ATP-binding cassette sub-family B member 6 (Homo sapiens, UniProt Q9NP58); experiment: ABCB6 transporter inhibitors, porphyrin accumulation, dose response, flow cytometry, K562-ABCB6 cells, cherry pick 02 (AID 624487); format: functional; conditions: read-out: EC50_MICROM
[11] = target: Long-chain-fatty-acid--AMP ligase FadD28 (Mycobacterium tuberculosis, UniProt P9WQ59); experiment: Fluorescence polarization aasay to screen for inhibitors that compete for the binding of FadD28 to a bisubstrate Measured in Biochemical System Using Plate Reader - 2147-01_Inhibitor_Dose_CherryPick_Activity.; format: functional, Mycobacterium tuberculosis H37Rv
[12] = HepG2 cell cytotoxicity, dose response, cytotoxicity control, ATP luminescence, cherry-pick, activator set 2 (AID 1053143); format: functional, cell-based
Beta-lactamase [13] = target: Beta-lactamase (Salmonella choleraesuis (strain SC-B67), UniProt Q5J463); experiment: Epi-absorbance-based counterscreen for selective VIM-2 inhibitors: dose response biochemical high throughput screening assay to identify inhibitors of TEM-1 serine-beta-lactamase.
Beta-lactamase [14] = target: T5, Beta-lactamase (Pseudomonas aeruginosa, UniProt Q79MP6); experiment: IMP-1 metallo-beta-lactamase inhibitors, dose response, selectivity assay for VIM-2 inhibitor project, biochemical, epi-absorbance (AID 1920)
Beta-lactamase [15] = target: T5, Beta-lactamase; experiment: […] counterscreen for selective VIM-2 inhibitors: dose response biochemical high throughput screening assay to identify inhibitors of IMP-1 metallo-beta-lactamase.
[16] = inhibitors of intracellular T. cruzi replication, confirmation, NIH3T3 host cells, beta-gal luminescence (AID 2044); format: functional, cell-based;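 note: intracellular parasites grown in NIH/3T3 mouse fibroblasts as host cells; luminescent beta-galactosidase reporter signal from transgenic T. cruzi replicating inside host cells; inhibitors lower the luminescence signal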
[17] = cytotoxicity toward NIH3T3 fibroblasts, dose response, counter-screen, cell-based, ATP luminescence, mouse fibroblasts (AID 2010); format: functional;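 note: cells exposed to compound for about 90 hours before reading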
cells = format: functional
[18] = target: T6, Sentrin-specific protease 8 (Homo sapiens, UniProt Q96LD8); format: functional
T6 sequence (Q96LD8 whole entry): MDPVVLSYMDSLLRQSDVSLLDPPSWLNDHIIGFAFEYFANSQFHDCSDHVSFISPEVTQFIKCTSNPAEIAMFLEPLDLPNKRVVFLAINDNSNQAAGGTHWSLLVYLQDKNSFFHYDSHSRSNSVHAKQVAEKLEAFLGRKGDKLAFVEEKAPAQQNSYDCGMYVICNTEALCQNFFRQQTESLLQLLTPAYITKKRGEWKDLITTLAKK

[19] = target: T6, Sentrin-specific protease 8; format: functional; remark: listed apart in the source
Caspase-3 = target: T7, Caspase-3 (Homo sapiens, UniProt P42574); experiment: Dose-response confirmation of uHTS inhibitor hits of Sentrin-Specific Protease 8 in a Caspase-3 Fluorescence assay.; format: functional
T7 sequence (P42574 whole entry): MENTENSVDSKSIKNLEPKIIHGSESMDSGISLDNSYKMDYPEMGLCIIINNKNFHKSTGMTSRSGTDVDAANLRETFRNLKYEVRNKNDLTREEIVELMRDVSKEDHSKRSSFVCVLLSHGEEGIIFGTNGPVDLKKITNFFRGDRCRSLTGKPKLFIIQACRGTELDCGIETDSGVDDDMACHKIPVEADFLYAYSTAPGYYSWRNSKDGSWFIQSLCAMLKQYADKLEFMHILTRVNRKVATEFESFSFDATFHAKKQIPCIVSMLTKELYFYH

[20] = target: Beta-2 adrenergic receptor (Homo sapiens, UniProt P07550); experiment: Dose response for HTS for Beta-2AR agonists via FAP method from Powderset3.; format: functional
[21] = target: Disintegrin and metalloproteinase domain-containing protein 17 (Homo sapiens, UniProt P78536); experiment: exosite inhibitors of ADAM17, dose response, biochemical (AID 743260)
[22] = ADAM10 protease inhibitors, dose response, selectivity assay for ADAM17 exosite inhibitor project, biochemical, FRET peptide substrate, recombinant human ADAM10 (AID 743259);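 note: ADAM10 enzyme cleaving a FRET peptide substrate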
[23] = inhibitors of TNFa-stimulated NF-kB luciferase reporter, dose response, selectivity assay for EBV LMP1 NF-kB inhibitor project, HEK293 LMP1 reporter cells, dry powder, set 2 (AID 624369); format: functional
[24] = LMP1-driven NF-kB reporter inhibition, dose response, cell-based, luciferase reporter, luminescence, dry powder, set 2 (AID 624376); format: functional
[25] = HEK293 cell viability, dose response, counter-screen for EBV LMP1 inhibitor project, dry powder, set 2 (AID 624374); format: functional
[26] = target: Protein disulfide-isomerase (Homo sapiens, UniProt P07237); experiment: PDI inhibitors, insulin turbidity readout, confirmation, biochemical, dry powder samples, set 2 (AID 652146)
[27] = A375 melanoma cell viability loss, dose response, counter-screen for MITF inhibitor project, CellTiter-Glo luminescence, dry powder, set 4 (AID 624364); format: functional, cell-based; conditions: A-375;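 note: A375 melanoma cells are MITF independent so this is a counter screen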
[28] = A375 melanoma cell cytotoxicity, dose response, counter-screen for MITF inhibitor project, CellTiter-Glo luminescence, dry powder, set 2 (AID 624489); format: functional, cell-based; conditions: A-375;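 note: actives are compounds lowering A375 viability meaning general cytotoxicity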
NS3 = NS3 (Hepatitis C virus, UniProt A3EZJ3); experiment: HCV NS3 helicase inhibitor potency, dose response, biochemical, fluorescence polarization, ChemBridge library (AID 743264)
NS3, sequence (A3EZJ3 whole entry): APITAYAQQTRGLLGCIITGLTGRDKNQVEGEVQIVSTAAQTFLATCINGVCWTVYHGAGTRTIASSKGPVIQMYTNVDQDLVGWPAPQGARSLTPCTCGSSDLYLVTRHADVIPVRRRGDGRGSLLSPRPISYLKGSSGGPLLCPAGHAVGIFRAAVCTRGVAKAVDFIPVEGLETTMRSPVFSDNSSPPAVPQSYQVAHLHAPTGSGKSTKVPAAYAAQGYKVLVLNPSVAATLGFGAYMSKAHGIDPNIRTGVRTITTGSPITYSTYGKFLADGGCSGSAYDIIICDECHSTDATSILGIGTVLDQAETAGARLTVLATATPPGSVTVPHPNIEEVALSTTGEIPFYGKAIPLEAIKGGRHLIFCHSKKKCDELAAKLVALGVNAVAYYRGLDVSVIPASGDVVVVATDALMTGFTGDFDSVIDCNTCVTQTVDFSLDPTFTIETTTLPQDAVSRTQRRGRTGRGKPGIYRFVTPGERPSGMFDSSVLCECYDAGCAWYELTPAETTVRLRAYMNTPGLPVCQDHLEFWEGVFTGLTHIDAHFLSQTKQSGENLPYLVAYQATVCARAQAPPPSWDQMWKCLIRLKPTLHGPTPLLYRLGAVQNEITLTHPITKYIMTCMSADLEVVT

T1 sequence (P41143 whole entry): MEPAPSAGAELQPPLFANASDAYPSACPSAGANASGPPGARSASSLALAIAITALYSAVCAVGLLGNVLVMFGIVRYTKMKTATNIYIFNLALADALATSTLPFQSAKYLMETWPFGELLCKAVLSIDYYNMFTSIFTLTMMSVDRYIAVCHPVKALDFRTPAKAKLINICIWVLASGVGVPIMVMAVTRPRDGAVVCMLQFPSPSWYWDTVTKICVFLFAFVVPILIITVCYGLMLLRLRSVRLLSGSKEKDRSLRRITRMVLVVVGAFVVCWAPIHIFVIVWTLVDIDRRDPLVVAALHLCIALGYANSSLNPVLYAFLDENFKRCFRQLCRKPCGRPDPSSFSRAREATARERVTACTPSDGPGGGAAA
T5 sequence (Q79MP6 whole entry): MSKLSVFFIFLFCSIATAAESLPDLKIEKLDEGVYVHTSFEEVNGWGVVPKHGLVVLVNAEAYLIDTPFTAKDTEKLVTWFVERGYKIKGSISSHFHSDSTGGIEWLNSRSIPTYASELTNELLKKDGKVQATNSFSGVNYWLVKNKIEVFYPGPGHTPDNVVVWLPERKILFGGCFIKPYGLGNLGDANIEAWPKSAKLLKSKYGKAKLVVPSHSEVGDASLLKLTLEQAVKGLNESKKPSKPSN
T2 sequence (P41145 whole entry): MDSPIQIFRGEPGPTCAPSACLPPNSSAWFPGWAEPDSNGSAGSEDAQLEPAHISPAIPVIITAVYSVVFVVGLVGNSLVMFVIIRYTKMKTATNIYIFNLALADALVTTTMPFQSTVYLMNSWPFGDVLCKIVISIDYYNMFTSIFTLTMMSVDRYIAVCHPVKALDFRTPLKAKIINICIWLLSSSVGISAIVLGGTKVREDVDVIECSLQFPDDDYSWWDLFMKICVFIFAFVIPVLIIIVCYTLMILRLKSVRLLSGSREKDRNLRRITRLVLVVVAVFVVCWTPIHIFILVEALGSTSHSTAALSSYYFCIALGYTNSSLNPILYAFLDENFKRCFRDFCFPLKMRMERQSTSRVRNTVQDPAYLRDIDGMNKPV
Long-chain-fatty-acid--AMP ligase FadD28, sequence (P9WQ59 whole entry): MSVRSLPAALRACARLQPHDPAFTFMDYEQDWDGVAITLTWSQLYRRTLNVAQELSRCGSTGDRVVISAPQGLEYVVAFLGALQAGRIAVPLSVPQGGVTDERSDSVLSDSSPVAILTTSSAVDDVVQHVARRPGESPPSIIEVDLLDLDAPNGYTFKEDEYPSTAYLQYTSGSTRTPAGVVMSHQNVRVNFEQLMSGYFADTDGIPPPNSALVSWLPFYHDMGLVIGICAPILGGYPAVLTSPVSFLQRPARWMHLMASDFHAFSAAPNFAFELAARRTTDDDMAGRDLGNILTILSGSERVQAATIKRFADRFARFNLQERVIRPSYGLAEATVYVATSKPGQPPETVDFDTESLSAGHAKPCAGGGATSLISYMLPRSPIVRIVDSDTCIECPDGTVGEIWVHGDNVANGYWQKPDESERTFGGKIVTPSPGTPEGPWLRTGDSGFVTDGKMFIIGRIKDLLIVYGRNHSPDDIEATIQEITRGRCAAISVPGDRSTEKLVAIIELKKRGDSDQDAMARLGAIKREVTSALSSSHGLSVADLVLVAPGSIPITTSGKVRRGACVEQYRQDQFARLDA
Mu-type opioid receptor, sequence (P35372 whole entry): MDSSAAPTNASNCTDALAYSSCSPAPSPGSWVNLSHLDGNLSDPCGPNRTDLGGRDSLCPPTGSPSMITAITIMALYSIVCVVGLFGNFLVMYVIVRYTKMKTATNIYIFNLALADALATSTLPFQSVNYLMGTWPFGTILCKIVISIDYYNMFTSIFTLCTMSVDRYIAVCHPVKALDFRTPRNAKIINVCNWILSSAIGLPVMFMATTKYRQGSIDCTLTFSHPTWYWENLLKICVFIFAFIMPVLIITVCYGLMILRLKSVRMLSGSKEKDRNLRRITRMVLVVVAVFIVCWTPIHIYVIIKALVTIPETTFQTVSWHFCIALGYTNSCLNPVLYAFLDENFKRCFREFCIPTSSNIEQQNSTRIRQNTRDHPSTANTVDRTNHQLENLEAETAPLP
Disintegrin and metalloproteinase domain-containing protein 17, sequence (P78536 whole entry, the tested form may be a part): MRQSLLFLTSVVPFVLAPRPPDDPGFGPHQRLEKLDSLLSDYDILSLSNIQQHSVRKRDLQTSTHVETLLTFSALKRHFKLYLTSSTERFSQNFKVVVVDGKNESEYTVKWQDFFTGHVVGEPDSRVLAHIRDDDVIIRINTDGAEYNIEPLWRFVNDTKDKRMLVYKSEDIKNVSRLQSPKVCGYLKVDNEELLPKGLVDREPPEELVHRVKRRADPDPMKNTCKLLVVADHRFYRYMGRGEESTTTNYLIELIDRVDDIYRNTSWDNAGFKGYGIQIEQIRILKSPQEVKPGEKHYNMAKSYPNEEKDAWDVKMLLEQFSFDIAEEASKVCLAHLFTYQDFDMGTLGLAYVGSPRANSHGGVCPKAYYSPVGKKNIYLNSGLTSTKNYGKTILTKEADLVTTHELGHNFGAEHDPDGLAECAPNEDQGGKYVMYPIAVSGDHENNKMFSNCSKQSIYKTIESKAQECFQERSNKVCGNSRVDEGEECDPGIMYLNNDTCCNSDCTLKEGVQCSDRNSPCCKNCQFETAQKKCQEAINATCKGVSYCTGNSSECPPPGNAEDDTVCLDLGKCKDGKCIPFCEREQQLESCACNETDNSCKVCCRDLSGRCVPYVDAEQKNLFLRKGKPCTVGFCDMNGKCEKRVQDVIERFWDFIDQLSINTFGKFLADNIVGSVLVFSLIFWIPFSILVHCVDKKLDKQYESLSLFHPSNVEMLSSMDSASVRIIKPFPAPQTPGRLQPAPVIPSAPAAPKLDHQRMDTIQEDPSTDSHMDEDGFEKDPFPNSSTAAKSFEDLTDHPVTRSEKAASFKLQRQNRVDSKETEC
Beta-lactamase (Salmonella choleraesuis (strain SC-B67), UniProt Q5J463), sequence (Q5J463 whole entry): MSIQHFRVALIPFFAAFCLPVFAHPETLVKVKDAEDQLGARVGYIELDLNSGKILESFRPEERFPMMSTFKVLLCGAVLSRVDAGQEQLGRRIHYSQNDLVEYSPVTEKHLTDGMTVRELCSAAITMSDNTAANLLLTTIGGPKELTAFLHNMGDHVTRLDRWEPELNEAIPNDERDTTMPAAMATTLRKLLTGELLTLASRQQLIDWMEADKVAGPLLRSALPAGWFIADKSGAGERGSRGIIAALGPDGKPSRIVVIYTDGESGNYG
Beta-2 adrenergic receptor, sequence (P07550 whole entry, the tested form may be a part): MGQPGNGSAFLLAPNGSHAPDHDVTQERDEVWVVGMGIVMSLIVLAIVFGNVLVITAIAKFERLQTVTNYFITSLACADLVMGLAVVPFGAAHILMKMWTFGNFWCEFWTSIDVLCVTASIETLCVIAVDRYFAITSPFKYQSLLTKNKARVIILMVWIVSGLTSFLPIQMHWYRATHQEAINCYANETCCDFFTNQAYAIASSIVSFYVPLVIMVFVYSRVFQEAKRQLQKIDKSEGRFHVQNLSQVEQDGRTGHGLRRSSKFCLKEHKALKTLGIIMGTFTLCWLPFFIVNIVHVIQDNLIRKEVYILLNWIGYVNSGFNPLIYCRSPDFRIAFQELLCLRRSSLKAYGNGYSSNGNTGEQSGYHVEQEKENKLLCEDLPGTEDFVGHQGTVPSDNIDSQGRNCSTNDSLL
Beta Lactamase, sequence (Q932Y6 whole entry): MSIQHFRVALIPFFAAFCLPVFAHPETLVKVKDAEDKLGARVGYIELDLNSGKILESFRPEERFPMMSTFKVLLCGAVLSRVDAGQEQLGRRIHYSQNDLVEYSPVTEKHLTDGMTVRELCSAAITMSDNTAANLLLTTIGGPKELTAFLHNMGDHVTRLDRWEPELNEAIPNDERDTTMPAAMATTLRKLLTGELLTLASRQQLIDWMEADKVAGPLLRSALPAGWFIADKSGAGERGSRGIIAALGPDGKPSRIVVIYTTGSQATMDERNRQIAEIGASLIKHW
Protein disulfide-isomerase, sequence (P07237 whole entry): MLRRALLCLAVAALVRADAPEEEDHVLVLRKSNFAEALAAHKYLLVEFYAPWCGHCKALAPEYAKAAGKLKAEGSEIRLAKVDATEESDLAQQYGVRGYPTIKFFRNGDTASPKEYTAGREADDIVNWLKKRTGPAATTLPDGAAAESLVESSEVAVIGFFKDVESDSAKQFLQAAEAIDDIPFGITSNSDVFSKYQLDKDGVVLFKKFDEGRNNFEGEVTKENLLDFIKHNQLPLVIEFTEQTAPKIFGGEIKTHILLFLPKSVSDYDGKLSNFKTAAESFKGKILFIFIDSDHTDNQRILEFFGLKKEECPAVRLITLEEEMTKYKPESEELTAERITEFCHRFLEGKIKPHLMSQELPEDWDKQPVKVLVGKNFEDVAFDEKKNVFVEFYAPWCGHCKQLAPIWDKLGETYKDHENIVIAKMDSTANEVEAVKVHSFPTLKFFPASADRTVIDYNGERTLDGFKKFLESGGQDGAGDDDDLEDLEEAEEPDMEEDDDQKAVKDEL

For `CCc1ccc(NC(=O)c2nc(S(=O)(=O)Cc3ccccc3)ncc2Cl)cc1`, the IC50 [1] was 11.9 µM (inactive), the EC50 (Mu-type opioid receptor) was > 32 µM (inactive) and the EC50 [2] was > 32 µM (inactive). The IC50 [3] was 13.7 µM (active), the EC50 (Beta-galactosidase) was > 31.5 µM (inactive) and the IC50 [4] was 7.28 µM. For the same molecule, the IC50 (CHO) was 2.91 µM (active), the AC50 [5] was 2.28 µM (active) and the AC50 [6] was 1.74 µM (active). For the same molecule, the EC50 (Protein RecA) was 1.82 µM (active), the IC50 (Beta Lactamase) was 12.1 µM (inactive) and the AC50 [7] was 0.551 µM (active). The AC50 [8] was 24.4 µM (active), the AC50 [9] was 8.1 µM (active) and the EC50 [10] was 23.9 µM (active).
With `COc1cc([N+](=O)[O-])ccc1N=C(S)NNC(=O)c1ccc2c(c1)OCO2` the AC50 [11] was > 100 µM (inactive).
With `COc1cccc(NC(=O)c2ccc3c(c2)N(C)CCS3)c1` the AC50 [12] was 26 µM (active).
With `S=c1[nH]nc(C2CC2)n1Cc1ccccc1` the IC50 (Beta-lactamase [13]) was > 59.6 µM (inactive), the IC50 (Beta-lactamase [14]) was > 59.6 µM (inactive) and the IC50 (Beta-lactamase [15]) was > 59.6 µM (inactive).
In the case of `CC(=O)N1N=C(c2ccccc2)OC1c1ccc([N+](=O)[O-])s1` (centres undefined), the EC50 [16] is reported as 1.79 µM (active), the EC50 [17] is reported as 10.8 µM (active) and the IC50 (cells) is reported as 43.3 µM (active). The AC50 [6] was 8.37 µM (active), the AC50 [8] was 39.3 µM (active) and the AC50 [9] was 14.3 µM (active). For the same molecule, the IC50 [18] was 6.39 µM (active), the IC50 [19] was 6.49 µM (active) and the IC50 (Caspase-3) was 48.3 µM (active).
With `COCc1ccc(CN2CCCC(C(=O)Nc3ccc(-c4cccc(OC)c4)cc3)C2)o1` (centres undefined) the EC50 [20] was 607 µM (inactive).
With `COc1ccc(C(c2nnnn2Cc2ccccc2)N2CCN(C/C=C/c3ccccc3)CC2)cc1` (centres undefined) the IC50 [21] was > 69.5 µM (inactive) and the IC50 [22] was > 69.5 µM (inactive).
`O=C(C[C@@H]1CC[C@H]2[C@@H](COC[C@H](O)CN2Cc2ccc(Oc3ccccc3)cc2)O1)N1CCc2ccccc2C1` gave an AbsAC35 [23] of 67.78 µM.
With `COc1cccc(S(=O)(=O)N(C)C[C@@H]2Oc3cc(C4=CCCCC4)ccc3S(=O)(=O)N([C@@H](C)CO)C[C@@H]2C)c1` the AbsAC35 [24] was 50.42 µM.
With `CC(C)(C)[S@@+]([O-])N1Cc2cc(C(=O)NCc3ccccc3F)nc(-c3cccc(-c4cccnc4)c3)c2[C@H]1CCO` the AbsAC35 [25] was 245.66 µM.
With `C/C1=C\C[C@H](OC(=O)c2ccc(O)cc2)/C(C)=C/[C@@H](O)C(C)(C)CCC1` the AC50 [26] was 2 µM (active).
With `O=C1C(NS(=O)(=O)c2ccc(Br)s2)=C(N2CCOCC2)C(=O)c2ccccc21` the AC50 [27] was > 70 µM (inactive) and the AC50 [28] was > 70 µM (inactive).
In the case of `O=C1NC(=O)C(=Cc2ccc(-c3cc([N+](=O)[O-])ccc3O)o2)C(=O)N1`, the IC50 (NS3) is reported as 66.1 µM (active).
